Results: article PMC6268222, “Inhibitory Effects of Resveratrol Analogs on Mushroom Tyrosinase Activity” (Molecules, 2012)
Values after ≈ are worked out from the molar mass of the structure shown.

Tests used:
[1] = molecular target: mushroom tyrosinase (Agaricus bisporus, UniProt C7FF04); test: Tyrosinase inhibition qualitative enzymatic reaction screening; assay type: biochemical; conditions: second hour of assay; p > 0.05
Description: The ability to inhibit the activity of tyrosinase enzyme was evaluated using the enzymatic method described by Macrini et al., with modifications. This method relies on the inhibition of tyrosinase in the presence of its substrate tyrosine, interrupting the synthesis of melanin.
Aliquots (10 µL) of a solution composed of 125 U/mL of mushroom tyrosinase (Sigma-Aldrich, St. Louis, MO, USA) were added to 96-well microplates, and then pH 6.8 phosphate buffer solution (70 µL) and the analogs (60 µL, 350 µg/mL, in 2.5% DMSO) were also added. […] To the resultant mixture, L-tyrosine (70 µL, Sigma-Aldrich) at a concentration of 0.3 mg/mL in distilled water was added (final volume in the wells = 210 µL). The absorbances of the microplate wells were read on a spectrophotometric microplate reader (SpectraCount, Packard, Meriden, CT, USA) at 510 nm (T0). Then, the microplates were incubated at 30 ± 1 °C for 60 minutes and the absorbances were registered again (T1). An additional incubation for 60 minutes at 30 ± 1 °C was done and after this period a new spectrophotometric reading was conducted (T2). The inhibitory percentage at the two times (T1 and T2) was obtained according to the formula to inhibitory activity percentage as follows: [drawing 9] (1) Where IC% = inhibitory activity; C = negative control absorbance; S = sample or positive control absorbance (absorbance at time T1 or T2 minus the absorbance at time T0).

[2] = molecular target: tyrosinase; set-up: method as in earlier work; conditions: ref 13 (Bernard and Berthon); cited from earlier work
[3] = test system: B16-F10 murine melanoma cells; set-up: method as in PMID 22189272; conditions: cited from earlier work

Sequence of mushroom tyrosinase (C7FF04 1-392): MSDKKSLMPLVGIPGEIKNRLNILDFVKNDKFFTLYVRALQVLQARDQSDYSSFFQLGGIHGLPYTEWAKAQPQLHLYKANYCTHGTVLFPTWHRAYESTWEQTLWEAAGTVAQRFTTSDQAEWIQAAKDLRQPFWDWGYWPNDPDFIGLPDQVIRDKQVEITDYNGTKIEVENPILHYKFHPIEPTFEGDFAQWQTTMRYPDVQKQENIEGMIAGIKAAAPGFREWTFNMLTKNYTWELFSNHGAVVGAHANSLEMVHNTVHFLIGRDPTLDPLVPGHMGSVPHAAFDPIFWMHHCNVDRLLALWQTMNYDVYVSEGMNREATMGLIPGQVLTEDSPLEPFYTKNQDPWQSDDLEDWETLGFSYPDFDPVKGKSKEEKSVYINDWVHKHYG

Row | melting point [°C] | SMILES | inhibitory ability compared with kojic acid [1] | other results
1 |  | Oc1ccc(/C=N/c2ccccc2)cc1 [Analog D] | statistically equal to that of kojic acid | 
2 |  | Oc1ccccc1/C=N/c1ccccc1 [Analog E] | statistically equal to that of kojic acid | 
3 | 89.6 to 90.7 | O=[N+]([O-])c1ccc(/C=N/c2ccccc2)cc1 [Analog C] |  | 
4 | 53.1 to 54.2 | COc1cc(/C=N/c2ccccc2)ccc1O [Analog F] | statistically equal to that of kojic acid | 
5 |  | Oc1ccc(/C=C/c2cc(O)cc(O)c2)cc1 [resveratrol, Resveratrol] |  | IC50 (tyrosinase inhibition) [2]: 57.05 µg/mL (≈ 250 µM); cellular melanin production [3]: significantly suppressed; cytotoxicity (concentration without any cytotoxicity) [3]: > 200 µM
